Results reported in patent US20220257503A1, “Surface Modified Gas Vesicles, Preparation and Applications thereof” (THE HONG KONG POLYTECHNIC UNIVERSITY, priority 2019, published 2022).

What was measured:
[1] = test system: SCC7 tumor-bearing nude mice; assay: Biodistribution by NIR fluorescence imaging in tumor-bearing mice; type: in vivo
Experimental: Animal experiments were conducted under protocols approved by Animal Care and Use Committee (CC/ACUCC) of Hong Kong Polytechnic University. Suspension of 4×10^6 SCC7 cells in PBS (80 μL) was injected to subcutaneous sites in athymic nude mice (seven weeks old, female, 20-24 g). When the tumor size (in the right leg region) reached average size of 120 mm^3, mice were randomly allocated into three groups, (a) injecting free ICG solution into the tail veins of mice; (b) injecting ICG labelled GVs solution into the tail veins of mice; and (c) injecting ICG labelled PH-GVs solution into the tail veins of mice. Fluorescent imagines were acquired at 0, 0.5, 1, 2, 4, 8, 12, 24 and 48 h after injection using IVIS Lumina II (Caliper Life Sciences, USA; Excitation Filter: 780 nm, Emission Filter: 800 nm).
At the time of highest accumulation after one-dose injection, SCC7 tumors and normal organs (hearts, livers, spleens, kidneys, lungs and muscles) were collected for acquisition of Fluorescent signal intensity.

MCF-7 cells [2] = assay: PDT cytotoxicity by CCK-8 assay; type: cell-based, Human
Experimental: (§1) Photodynamic therapy setup: Cells were exposed to laser with the power of 100 mW/cm^2 for 5 min. The light source with a wavelength of 396 nm that was generated by an optical fiber was collimated to an aperture and irradiated to the 35 mm cell culture dish. The position of the cell culture plate was manually controlled by a dual-axis electric linear platform. After the treatment, cells were cultured in fresh medium for 4 h and then prepared for different analyses.
Cell culture: Human breast cancer cell line (MCF-7) was obtained from the Shanghai Cell Bank. […]
Cell viability test: In the pilot study, MCF-7 cells were divided randomly into eight groups: (1) control, (2) laser alone, (3) PpIX alone, (4) PpIX plus laser (PDT), (5) PpIX+GVs+laser (PDT+GVs), (6) PpIX+oxyGVs+laser (PDT+oxy-GVs), (7) GVs+laser, and (8) oxyGVs+laser. […] Cell viability at the different time points following PDT was determined using a Cell Counting Kit-8 (Sigma-Aldrich) according to the manufacturer's instructions. […] Cytotoxicity was determined by adding 10 μl CCK-8 reagent per well for 1 h at 37° C. in 5% CO2. The absorbance of the treated samples against a blank control was measured at 450 nm as the detection wavelength. The viability of treated cells was determined by comparing to the untreated ones in the control group.

MCF-7 cells [3] = assay: Cell apoptosis after PDT by Annexin V/PI flow cytometry; type: cell-based, Human; conditions: PDT (PpIX plus laser)
Experimental: as §1
Cell apoptosis test: Cells were seeded at a density of 5×10^5 cells in 6-cm dishes and incubated for 24 h. Alexa Fluor 488 Annexin V/Dead Cell Apoptosis Kit (Thermo Fisher Scientific) was used to measure cell apoptosis according to the manufacturer's instructions. Cells were collected and incubated with 5 μL of the annexin V conjugate and 1 μL of the PI working solution at room temperature for 15 min. The cells were analyzed by FACS Calibur flow cytometer and BD Accuri C6 Software (Becton-Dickinson, USA).

[4] = Singlet oxygen generation in cell free system under ultrasound (SOSG); conditions: alone; PpIX 10 μM, GVs 2 nM
Experimental: SDT setup: 1 MHz planar ultrasound transducer with diameter of 5 cm (Olympus, Tokyo, Japan) was used for sonification in this study. Function generator (AFG 3251, Tektronix Company, Oregon, USA) and power amplifier (Model 500 A250 CAR; Souderton, Pa., USA) were used to generate ultrasonic pulses. Cells were exposed to ultrasound 10 cm away from transducer coupled by degassed deionized water at 25° C. Acoustic intensity and field were characterized by hydrophone (HGL-200; Onda, Sunnyvale, Calif., USA). The spatial peak temporal average intensity was measured to be 8 W/cm^2; the duty cycle was 20% with fixed pulse repetition frequency (PRF) of 1000 Hz. The overall sonification duration was 5 min. The temperature increase in cell-culture experiment solution was controlled within 2.5° C. After the ultrasound treatment, cells were cultured in fresh medium for 4 h and then prepared for different analyses.
Generation of singlet oxygen: SOSG (10 μM) was used to detect singlet oxygen generation. The solution was exposed to ultrasound and protected from light during the exposure time. The fluorescence intensity of SOSG was measured by microplate reader at an excitation wavelength of 488 nm and an emission wavelength of 530 nm.

SMILES	fluorescence at tumor sites (in vivo imaging) ([1]; after intravenous injection, PH-GVs at 8 h)	fluorescence signals in the normal organs (in vivo imaging) ([1]; early time points (0.5-2 h) for ICG/GVs, up to 8 h for PH-GVs)	effects on cell viability (MCF-7 cells [2]; PpIX alone, no laser)	cell viability (MCF-7 cells [2]; PpIX+laser (ALA-PDT), 4 h following PDT) [%]	viable cells (MCF-7 cells [3]) [%]	SOSG fluorescence intensity before and after ultrasound treatment [4]
CC1(C)C(/C=C/C=C/C=C/C=C2\N(CCCCS(=O)(=O)[O-])c3ccc4ccccc4c3C2(C)C)=[N+](CCCCS(=O)(=O)[O-])c2ccc3ccccc3c21.[Na+] [ICG]	no strong fluorescence signal	considerable fluorescence signals				
C=CC1=C(C)c2cc3[nH]c(cc4[nH]c(cc5nc(cc1n2)C(C)=C5C=C)c(C)c4CCC(=O)O)c(CCC(=O)O)c3C [PpIX]			no effects	75	74.7	increased significantly
